Earlier results, collected in US20110256218A1, “CONTROLLED RELEASE COMPOSITIONS COMPRISING MECLIZINE OR RELATED PIPERAZINE DERIVATIVES” (EURAND, INC., priority 2010, published 2011).
Structures can show the parent of a compound that is named as a salt.

Tests used:
[1] = weakly basic chemical entity
[2] = in humans
[3] = in vivo
[4] = patients taking meclizine

Row | pKa [1] | plasma half-life [2] | SMILES | effects lasting (duration of action) [3] | onset of action [3] | sedation reported (common side effect) [4]
1 | 6.2 | – | Cc1cccc(CN2CCN(C(c3ccccc3)c3ccc(Cl)cc3)CC2)c1 (stereo not drawn) [Meclizine 2HCl.H2O, 1-(p-chloro-α-phenylbenzyl)-4-(m-methylbenzyl)piperazine dihydrochloride monohydrate] | – | – | –
2 | – | about 6 hours | Cc1cccc(CN2CCN(C(c3ccccc3)c3ccc(Cl)cc3)CC2)c1 (centres unmarked) [meclizine] | 8 to 24 h | about 1 hour | 20%-30%
